Reference: ChEMBL document CHEMBL3885881, “DrugMatrix”

Species on record: Rattus norvegicus
Experiment: DrugMatrix - Regimen: Daily Repeat
Format: toxicity, organism-based, Sprague-Dawley
Design: regimen Daily Repeat, gender Male, age 6-8 weeks
Conditions: in vivo, po, route oral GAVAGE, vehicle .5 % CMC; for ABSOLUTE BASOPHIL / ABSOLUTE EOSINOPHIL / ABSOLUTE LYMPHOCYTE / ABSOLUTE MONOCYTE / ABSOLUTE SEGMENTED NEUTROPHIL / BASOPHIL / EOSINOPHIL / ERYTHROCYTE COUNT / HEMATOCRIT / HEMOGLOBIN / LEUKOCYTE COUNT / LYMPHOCYTE / MEAN CORPUSCULAR HEMOGLOBIN / MEAN CORPUSCULAR HEMOGLOBIN CONCENTRATION / MONOCYTE / NEUTROPHIL / NUCLEATED RED BLOOD CELLS / PLATELET COUNT: tissue Blood; for ALANINE AMINOTRANSFERASE / ALBUMIN / ALKALINE PHOSPHATASE / ASPARTATE AMINOTRANSFERASE / BLOOD UREA NITROGEN / CARBON DIOXIDE / CHLORIDE / CHOLESTEROL / CREATINE PHOSPHOKINASE / CREATININE / GLUCOSE / LACTATE DEHYDROGENASE / LIPASE / PHOSPHORUS / POTASSIUM / SODIUM / TOTAL BILIRUBIN / TOTAL PROTEIN / URIC ACID: tissue Plasma
[1] = 0 mg/kg, 72 h, dose level Control, time 3 day
[2] = 0 mg/kg, 120 h, dose level Control, time 5 day
[3] = 3 mg/kg, 72 h, dose level Low, time 3 day

COc1cc2nc(N3CCN(C(=O)c4ccco4)CC3)nc(N)c2cc1OC [PRAZOSIN]
ABSOLUTE BASOPHIL [1]: 0 CELLS/uL | ABSOLUTE EOSINOPHIL [1]: 171.33 CELLS/uL | ABSOLUTE LYMPHOCYTE [1]: 13776.5 CELLS/uL | ABSOLUTE MONOCYTE [1]: 180.83 CELLS/uL | ABSOLUTE SEGMENTED NEUTROPHIL [1]: 1121.33 CELLS/uL | BASOPHIL [1]: 0% | EOSINOPHIL [1]: 1% | ERYTHROCYTE COUNT [1]: 5.56 x10E6/uL | HEMATOCRIT [1]: 34.75% | HEMOGLOBIN [1]: 13.68 G/DL | LEUKOCYTE COUNT [1]: 15.25 x10E3/uL | LYMPHOCYTE [1]: 90.17% | MEAN CORPUSCULAR HEMOGLOBIN [1]: 24.6 pg | MEAN CORPUSCULAR HEMOGLOBIN CONCENTRATION [1]: 39.4 G/DL | MONOCYTE [1]: 1.17% | NEUTROPHIL [1]: 7.67% | NUCLEATED RED BLOOD CELLS [1]: 0 /100WBC | PLATELET COUNT [1]: 1342 x10E3/uL | ALANINE AMINOTRANSFERASE [1]: 49.67 u/L | ALBUMIN [1]: 4.15 G/DL | ALKALINE PHOSPHATASE [1]: 346.83 u/L | ASPARTATE AMINOTRANSFERASE [1]: 108.17 u/L | BLOOD UREA NITROGEN [1]: 17.33 mg/dL | CARBON DIOXIDE [1]: 25 mmol/L | CHLORIDE [1]: 100.83 MEQ/L | CHOLESTEROL [1]: 66.83 mg/dL | CREATINE PHOSPHOKINASE [1]: 788 u/L | CREATININE [1]: 0.18 mg/dL | GLUCOSE [1]: 151.67 mg/dL | LACTATE DEHYDROGENASE [1]: 982.5 u/L | LIPASE [1]: 10.33 u/L | PHOSPHORUS [1]: 11.23 mg/dL | POTASSIUM [1]: 6.37 MEQ/L | SODIUM [1]: 141.02 MEQ/L | TOTAL BILIRUBIN [1]: 0.18 mg/dL | TOTAL PROTEIN [1]: 5.9 G/DL | URIC ACID [1]: 1.8 mg/dL | ABSOLUTE BASOPHIL [2]: 0 CELLS/uL | ABSOLUTE EOSINOPHIL [2]: 69 CELLS/uL | ABSOLUTE LYMPHOCYTE [2]: 13632.83 CELLS/uL | ABSOLUTE MONOCYTE [2]: 139.83 CELLS/uL | ABSOLUTE SEGMENTED NEUTROPHIL [2]: 1225 CELLS/uL | BASOPHIL [2]: 0% | EOSINOPHIL [2]: 0.33% | ERYTHROCYTE COUNT [2]: 5.52 x10E6/uL | HEMATOCRIT [2]: 33.98% | HEMOGLOBIN [2]: 13.22 G/DL | LEUKOCYTE COUNT [2]: 15.07 x10E3/uL | LYMPHOCYTE [2]: 90.83% | MEAN CORPUSCULAR HEMOGLOBIN [2]: 23.95 pg | MEAN CORPUSCULAR HEMOGLOBIN CONCENTRATION [2]: 38.9 G/DL | MONOCYTE [2]: 0.83% | NEUTROPHIL [2]: 8% | NUCLEATED RED BLOOD CELLS [2]: 0 /100WBC | PLATELET COUNT [2]: 1196 x10E3/uL | ALANINE AMINOTRANSFERASE [2]: 49.17 u/L | ALBUMIN [2]: 4.2 G/DL | ALKALINE PHOSPHATASE [2]: 352.33 u/L | ASPARTATE AMINOTRANSFERASE [2]: 89.67 u/L | BLOOD UREA NITROGEN [2]: 18 mg/dL | CARBON DIOXIDE [2]: 27.67 mmol/L | CHLORIDE [2]: 101 MEQ/L | CHOLESTEROL [2]: 72.83 mg/dL | CREATINE PHOSPHOKINASE [2]: 417.5 u/L | CREATININE [2]: 0.18 mg/dL | GLUCOSE [2]: 150.5 mg/dL | LACTATE DEHYDROGENASE [2]: 517.33 u/L | LIPASE [2]: 9 u/L | PHOSPHORUS [2]: 11.87 mg/dL | POTASSIUM [2]: 6.57 MEQ/L | SODIUM [2]: 143.62 MEQ/L | TOTAL BILIRUBIN [2]: 0.2 mg/dL | TOTAL PROTEIN [2]: 6.08 G/DL | URIC ACID [2]: 1.45 mg/dL | ABSOLUTE BASOPHIL [3]: 0 CELLS/uL | ABSOLUTE EOSINOPHIL [3]: 118.67 CELLS/uL | ABSOLUTE LYMPHOCYTE [3]: 13015.33 CELLS/uL | ABSOLUTE MONOCYTE [3]: 208 CELLS/uL | ABSOLUTE SEGMENTED NEUTROPHIL [3]: 1224.67 CELLS/uL | BASOPHIL [3]: 0% | EOSINOPHIL [3]: 0.67% | ERYTHROCYTE COUNT [3]: 5.43 x10E6/uL | HEMATOCRIT [3]: 33.53% | HEMOGLOBIN [3]: 13.07 G/DL | LEUKOCYTE COUNT [3]: 14.57 x10E3/uL | LYMPHOCYTE [3]: 89.67% | MEAN CORPUSCULAR HEMOGLOBIN [3]: 24.1 pg | MEAN CORPUSCULAR HEMOGLOBIN CONCENTRATION [3]: 38.97 G/DL | MONOCYTE [3]: 1.33% | NEUTROPHIL [3]: 8.33% | NUCLEATED RED BLOOD CELLS [3]: 0 /100WBC | PLATELET COUNT [3]: 1384.67 x10E3/uL | ALANINE AMINOTRANSFERASE [3]: 59.67 u/L | ALBUMIN [3]: 3.97 G/DL | ALKALINE PHOSPHATASE [3]: 505 u/L | ASPARTATE AMINOTRANSFERASE [3]: 74.67 u/L | BLOOD UREA NITROGEN [3]: 13.33 mg/dL | CARBON DIOXIDE [3]: 24.33 mmol/L | CHLORIDE [3]: 102 MEQ/L | CHOLESTEROL [3]: 70 mg/dL | CREATINE PHOSPHOKINASE [3]: 271 u/L | CREATININE [3]: 0.22 mg/dL | GLUCOSE [3]: 128.67 mg/dL | LACTATE DEHYDROGENASE [3]: 254.33 u/L | LIPASE [3]: 10.67 u/L | PHOSPHORUS [3]: 12.33 mg/dL | POTASSIUM [3]: 6.67 MEQ/L | SODIUM [3]: 142.25 MEQ/L | TOTAL BILIRUBIN [3]: 0.2 mg/dL | TOTAL PROTEIN [3]: 5.63 G/DL | URIC ACID [3]: 1.43 mg/dL
